# Results as given in US10588935B2, “FC receptor (FcRn) binding peptides and uses thereof” (THE BRIGHAM AND WOMEN'S HOSPITAL, INC., priority 2013, dated 2020).
# Where two headings read alike, the source gives them in different places. Bridge positions count the residues as written; N and C are the ends. Peptide text beside a SMILES is read from it.
# Target: T1, soluble human FcRn (Homo sapiens, UniProt P55899)
# T1 construct: Soluble human FcRn was expressed and purified by Biogen-Idec as previously described (29)
# Experiment: SPR (Biacore) affinity of peptides for immobilized soluble human FcRn
# Assay type: binding
# Protocol: SPR analyses were conducted using a Biacore 3000 or T100 instrument. Research-grade CM5 sensor chips and all coupling reagents for immobilization were purchased from Biacore. All proteins were cross-linked to the dextran surface of a CM5 sensor chip by standard amine coupling chemistry as recommended by Biacore. […] Binding experiments were performed at pH 6.0 or 7.4 using 50 mM phosphate, 100 mM sodium chloride and 0.01% surfactant P20. […] Bound albumin protein was then allowed to dissociate from the chip for 5 minutes with running buffer. Any remaining albumin was removed from the chip with a 60 second injection (2 cycles) of pH 8.0 Tris-HCl regeneration buffer (1 M Tris pH 8.0) at 25 μL/min flow rate. The binding responses recorded near the end of the association phase were plotted as a function of concentration. Equilibrium dissociation constants (KD), were derived from sensorgrams using the 1:1 binding model of BIAevaluation software 4.1.
# [1] = Table 1, pH 6, shFcRn immobilized on the sensor chip, steady state fit, read-out: Kd, pH 6** Biacore
# [2] = Table 2, pH 7.4, data only 100 uM, therefore Kd may be higher, read-out: Kd, pH 7.4 Biacore
SMILES,Kd Ratio 7.4/6.0 (Table 2),Kd [1] [µM],Kd [2] [µM]
CSCC[C@H](NC(=O)[C@@H](NC(C)=O)C(C)C)C(=O)N[C@@H](Cc1c[nH]cn1)C(=O)N[C@H]1CSSC[C@@H](C(=O)N[C@@H](CC(=O)O)C(=O)N[C@@H](CCC(N)=O)C(=O)NCC(N)=O)NC(=O)[C@H](CCCNC(=N)N)NC(=O)[C@H](Cc2ccccc2)NC(=O)[C@H](C)NC(=O)[C@H](CCC(=O)O)NC(=O)[C@H](CC(=O)O)NC(=O)[C@H](Cc2c[nH]c3ccccc23)NC(=O)[C@H](Cc2ccccc2)NC1=O [SYN1382] (Ac-VMHCFWDEAFRCDQG-NH2; disulfide 4-12 (inferred)),25,,
CC(=O)N[C@@H](CCCNC(=N)N)C(=O)N[C@@H](Cc1ccc(O)cc1)C(=O)N[C@@H](Cc1ccccc1)C(=O)N[C@H]1CSSC[C@@H](C(=O)N[C@@H](CCC(=O)O)C(=O)N[C@@H](CCC(=O)O)C(=O)N[C@@H](C)C(N)=O)NC(=O)[C@H](Cc2c[nH]c3ccccc23)NC(=O)CNC(=O)[C@H](Cc2c[nH]cn2)NC(=O)[C@H](CCCCN)NC(=O)[C@H](Cc2c[nH]c3ccccc23)NC(=O)[C@H](CCCCN)NC(=O)[C@H]([C@@H](C)O)NC1=O [SYN1554] (Ac-RYFCTKWKHGWCEEA-NH2; disulfide 4-12),,> 100,
CSCC[C@@H]1NC(=O)[C@H](CCC(=O)O)NC(=O)[C@H](CCC(=O)O)NC(=O)[C@H](CC(=O)O)NC(=O)[C@H](Cc2c[nH]c3ccccc23)NC(=O)[C@H](Cc2c[nH]c3ccccc23)NC(=O)[C@@H](NC(=O)[C@H](Cc2c[nH]cn2)NC(=O)[C@H](CCSC)NC(=O)[C@@H](NC(C)=O)C(C)C)CSSC[C@@H](C(=O)N[C@@H](CCCNC(=N)N)C(=O)N[C@@H](C)C(=O)N[C@@H](Cc2ccccc2)C(N)=O)NC(=O)[C@H](CC(C)C)NC1=O [SYN1533] (Ac-VMHCWWDEEMLCRAF-NH2; disulfide 4-12 (inferred)),106,,
CC(=O)N[C@@H](CCCNC(=N)N)C(=O)N[C@@H](Cc1ccc(O)cc1)C(=O)N[C@@H](Cc1ccccc1)C(=O)N[C@@H](C)C(=O)N[C@H](C(=O)N[C@@H](CCCCN)C(=O)N[C@@H](Cc1c[nH]c2ccccc12)C(=O)N[C@@H](CCCCN)C(=O)N[C@@H](Cc1c[nH]cn1)C(=O)NCC(=O)N[C@@H](Cc1c[nH]c2ccccc12)C(=O)N[C@@H](C)C(=O)N[C@@H](CCC(=O)O)C(=O)N[C@@H](CCC(=O)O)C(=O)N[C@H](C(N)=O)C(C)C)[C@@H](C)O [SYN1558] (Ac-RYFATKWKHGWAEEV-NH2),,> 100,

# Continued, values first:
Kd Ratio 7.4/6.0 (Table 2),Kd [1] [µM],Kd [2] [µM],SMILES
9.8,,17.3,CSCC[C@H](NC(=O)[C@H](Cc1ccc(O)cc1)NC(C)=O)C(=O)N[C@H](C(=O)N[C@H]1CSSC[C@@H](C(=O)N[C@@H](CCC(=O)O)C(=O)N[C@@H](C)C(=O)N[C@H](C(N)=O)C(C)C)NC(=O)[C@H](CO)NC(=O)[C@H](Cc2ccccc2)NC(=O)CNC(=O)[C@H](CC(=O)O)NC(=O)[C@H](CC(=O)O)NC(=O)[C@H](Cc2c[nH]c3ccccc23)NC(=O)[C@H](CCCCN)NC1=O)[C@@H](C)O [SYN1155] (Ac-YMTCKWDDGFSCEAV-NH2; disulfide 4-12 (inferred))
7.8,,12,CSCC[C@H](NC(=O)[C@H](Cc1ccc(O)cc1)NC(C)=O)C(=O)N[C@H](C(=O)N[C@H]1CSSC[C@@H](C(=O)N[C@@H](CCC(=O)O)C(=O)N[C@@H](Cc2ccc(O)cc2)C(=O)N[C@H](C(N)=O)C(C)C)NC(=O)[C@H](CO)NC(=O)[C@H](Cc2ccccc2)NC(=O)CNC(=O)[C@H](CC(=O)O)NC(=O)[C@H](C)NC(=O)[C@H](Cc2c[nH]c3ccccc23)NC(=O)[C@H](CCCCN)NC1=O)[C@@H](C)O [SYN1149] (Ac-YMTCKWADGFSCEYV-NH2; disulfide 4-12 (inferred))
